# According to US9695155B2, “Herbicidal substituted pyrimidinyloxy benzene compounds” (E. I. DU PONT DE NEMOURS AND COMPANY, priority 2013, dated 2017):
# How the values were obtained:
# [1] = tested on: kochia; assay: Test A preemergence; format: in vivo, Kochia scoparia; details: for Plant response rating, Kochia: 125 g ai/ha; for Kochia plant response rating: 500 g ai/ha
# In short: (§1)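 Pre- and postemergence greenhouse screen. Soil: loam + sand. Spray carrier: solvent mixture, non-phytotoxic, with surfactant. Post timing at 1–2 leaves, height 2–10 cm. Readout: visual injury on a 0–100 scale roughly 10 days after application, untreated plants as reference.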
# [2] = tested on: ragweed; assay: Test A preemergence; format: in vivo, Ambrosia elatior; details: for Plant response rating, Ragweed: 125 g ai/ha; for Ragweed plant response rating: 500 g ai/ha
# In short: as §1
# [3] = tested on: Italian ryegrass; assay: Test A preemergence; format: in vivo, Lolium multiflorum; details: for Plant response rating, Ryegrass, Italian: 125 g ai/ha; for Ryegrass, Italian plant response rating: 500 g ai/ha
# In short: as §1
# [4] = tested on: barnyardgrass; assay: Test A postemergence; format: in vivo, Echinochloa crus-galli
# In short: as §1
# [5] = tested on: corn; assay: Test A postemergence; format: in vivo, Zea mays
# In short: as §1
# [6] = tested on: rice; assay: Test B flooded paddy test; format: in vivo, Oryza sativa; details: Flood, 250 g ai/ha; 0 to 100 scale where 0 is no effect and 100 is complete control
# In short: (§2)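 Plants at 2-leaf stage; pots flooded to 3 cm above soil and compound applied directly into paddy water, depth held throughout. After 13 to 15 days in greenhouse, visual rating versus controls on 0 (no effect) to 100 (complete control) scale.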
# [7] = tested on: Heteranthera limosa; assay: Test B flooded paddy test; format: in vivo; details: Flood, 250 g ai/ha; 0 to 100 scale where 0 is no effect and 100 is complete control
# In short: as §2
# [8] = tested on: barnyardgrass; assay: Test B flooded paddy test; format: in vivo, Echinochloa crus-galli; details: Flood, 250 g ai/ha; 0 to 100 scale where 0 is no effect and 100 is complete control
# In short: as §2
# [9] = tested on: galium; assay: Test C preemergence; format: in vivo, Galium aparine; details: for Galium plant response rating: preemergence; for Plant response rating, Galium: Preemergence, 31 g ai/ha, scale 0 to 100, 0 no effect, 100 complete control
# In short: (§3)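 Seeds were sown in loam–sand blend and sprayed preemergence, while plants at 1- to 4-leaf stage (2–18 cm) in peat-based medium received postemergence sprays; test chemicals were formulated in a non-phytotoxic solvent with surfactant. After 13–15 days in a greenhouse, injury was rated visually against controls, 0 (no effect) to 100 (complete control).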
# [10] = tested on: corn; assay: Test C preemergence; format: in vivo, Zea mays; details: for Corn plant response rating: preemergence; for Plant response rating, Corn: Preemergence, 31 g ai/ha, scale 0 to 100, 0 no effect, 100 complete control
# In short: as §3
# [11] = tested on: Italian ryegrass; assay: Test C postemergence; format: in vivo, Lolium multiflorum; details: for Plant response rating (0 to 100), Ryegrass, Italian: 125 g ai/ha, postemergence; for Plant response rating, Ryegrass, Italian: Postemergence, scale 0 to 100 (0 no effect, 100 complete control)
# In short: as §3
# [12] = tested on: galium; assay: Test C postemergence; format: in vivo, Galium aparine; details: for Galium plant response rating: 16 g ai/ha, visual rating; for Galium plant response rating / Plant response rating (0 to 100), Galium: postemergence; for Galium plant response rating / Plant response rating, Galium: scale 0 to 100 (0 no effect, 100 complete control); for Plant response rating (0 to 100), Galium: 125 g ai/ha; for Plant response rating, Galium: Postemergence
# In short: as §3
# [13] = tested on: corn; assay: Test C postemergence; format: in vivo, Zea mays; details: for Corn plant response rating: 16 g ai/ha, visual rating; for Corn plant response rating / Plant response rating (0 to 100), Corn: postemergence; for Corn plant response rating / Plant response rating, Corn: scale 0 to 100 (0 no effect, 100 complete control); for Plant response rating (0 to 100), Corn: 125 g ai/ha; for Plant response rating, Corn: Postemergence
# In short: as §3
# [14] = tested on: lambsquarters; assay: Test C postemergence; format: in vivo, Chenopodium album; details: for Plant response rating (0 to 100), Lambsquarters: 125 g ai/ha, postemergence; for Plant response rating, Lambsquarters: Postemergence, scale 0 to 100 (0 no effect, 100 complete control)
# In short: as §3
# [15] = tested on: pigweed; assay: Test C postemergence; format: in vivo, Amaranthus retroflexus; details: for Plant response rating (0 to 100), Pigweed: 125 g ai/ha, postemergence; for Plant response rating, Pigweed: Postemergence, scale 0 to 100 (0 no effect, 100 complete control)
# In short: as §3
# [16] = tested on: waterhemp; assay: Test C postemergence; format: in vivo, Amaranthus rudis; details: for Plant response rating (0 to 100), Waterhemp: 125 g ai/ha, postemergence; for Plant response rating, Waterhemp: Postemergence, scale 0 to 100 (0 no effect, 100 complete control)
# In short: as §3
# [17] = 0 to 100 scale where 0 is no effect and 100 is complete control
# [18] = 0 to 100 scale, 0 no effect, 100 complete control, approx. 10 days
# [19] = 125 g ai/ha, 0 to 100 scale where 0 is no effect and 100 is complete control
# [20] = 500 g ai/ha, 0 to 100 scale, 0 no effect, 100 complete control
# [21] = 16 g ai/ha, scale 0 to 100 (0 no effect, 100 complete control)
# [22] = 62 g ai/ha, scale 0 (no effect) to 100 (complete control)
# [23] = 125 g ai/ha, scale 0 (no effect) to 100 (complete control)
# [24] = 500 g ai/ha, 0 to 100 scale where 0 is no effect and 100 is complete control
# [25] = 8 g ai/ha, scale 0 to 100 (0 no effect, 100 complete control)
smiles,measurement,setting,value
CC(C)c1cnn(-c2c(C#N)cccc2Oc2ncc(Cl)cn2)c1 [Compound 85],"Plant response rating, Kochia",[1]; [17],80
same,Kochia plant response rating,[1]; [18],100
same,"Plant response rating, Ragweed",[2]; [17],40
same,Ragweed plant response rating,[2]; [18],60
same,"Plant response rating, Ryegrass, Italian",[3]; [17],0
same,"Ryegrass, Italian plant response rating",[3]; [18],40
same,"Plant response rating, Barnyardgrass",[4]; [19],90
same,"Plant response rating, Barnyardgrass",[4]; [20],90
same,"Plant response rating, Corn",[5]; [19],30
same,"Plant response rating, Corn",[5]; [20],70
same,"Plant response rating, Rice",[6],10
same,"Plant response rating, Ducksalad",[7],30
same,"Plant response rating, Barnyardgrass",[8],0
same,Galium plant response rating,[9]; [21],0
same,Galium plant response rating,[9]; [22],50
same,Galium plant response rating,[9]; [23],85
same,"Plant response rating, Galium",[9],0
same,Corn plant response rating,[10]; [21],5
same,Corn plant response rating,[10]; [22],5
same,Corn plant response rating,[10]; [23],45
same,"Plant response rating, Corn",[10],10
same,"Plant response rating (0 to 100), Ryegrass, Italian",[11],5
same,"Plant response rating, Ryegrass, Italian","[11]; 31 g ai/ha, 13 to 15 days",0
same,"Plant response rating, Ryegrass, Italian",[11]; 62 g ai/ha,0
same,Galium plant response rating,[12]; 13 to 15 days,40
same,"Plant response rating (0 to 100), Galium",[12],75
same,"Plant response rating, Galium","[12]; 31 g ai/ha, 13 to 15 days",50
same,"Plant response rating, Galium",[12]; 62 g ai/ha,50
same,Corn plant response rating,[13]; 13 to 15 days,5
same,"Plant response rating (0 to 100), Corn",[13],10
same,"Plant response rating, Corn","[13]; 31 g ai/ha, 13 to 15 days",5
same,"Plant response rating, Corn",[13]; 62 g ai/ha,10
same,"Plant response rating (0 to 100), Lambsquarters",[14],70
same,"Plant response rating, Lambsquarters","[14]; 31 g ai/ha, 13 to 15 days",55
same,"Plant response rating, Lambsquarters",[14]; 62 g ai/ha,75
same,"Plant response rating (0 to 100), Pigweed",[15],70
same,"Plant response rating, Pigweed","[15]; 31 g ai/ha, 13 to 15 days",55
same,"Plant response rating, Pigweed",[15]; 62 g ai/ha,70
same,"Plant response rating (0 to 100), Waterhemp",[16],60
same,"Plant response rating, Waterhemp","[16]; 31 g ai/ha, 13 to 15 days",55
same,"Plant response rating, Waterhemp",[16]; 62 g ai/ha,70
Cc1cnc(Oc2cccc(C#N)c2-n2cc(C#N)cn2)nc1 [Compound 90],"Plant response rating, Kochia",[1]; [17],100
same,Kochia plant response rating,[1]; [18],100
same,"Plant response rating, Ragweed",[2]; [17],50
same,Ragweed plant response rating,[2]; [18],80
same,"Plant response rating, Ryegrass, Italian",[3]; [17],0
same,"Ryegrass, Italian plant response rating",[3]; [18],30
same,"Plant response rating, Barnyardgrass",[4]; [19],90
same,"Plant response rating, Barnyardgrass",[4]; [24],100
same,"Plant response rating, Corn",[5]; [19],0
same,"Plant response rating, Corn",[5]; [24],80
same,"Plant response rating, Rice",[6],0
same,"Plant response rating, Ducksalad",[7],40
same,"Plant response rating, Barnyardgrass",[8],0
same,Galium plant response rating,[9]; [21],5
same,Galium plant response rating,[9]; [22],100
same,Galium plant response rating,[9]; [23],98
same,"Plant response rating, Galium",[9],5
same,Corn plant response rating,[10]; [21],0
same,Corn plant response rating,[10]; [22],10
same,Corn plant response rating,[10]; [23],45
same,"Plant response rating, Corn",[10],0
same,"Plant response rating (0 to 100), Ryegrass, Italian",[11],0
same,"Plant response rating, Ryegrass, Italian","[11]; 31 g ai/ha, 13 to 15 days",5
same,"Plant response rating, Ryegrass, Italian",[11]; 62 g ai/ha,5
same,Galium plant response rating,[12]; 13 to 15 days,70
same,"Plant response rating (0 to 100), Galium",[12],85
same,"Plant response rating, Galium","[12]; 31 g ai/ha, 13 to 15 days",55
same,"Plant response rating, Galium",[12]; 62 g ai/ha,65
same,Corn plant response rating,[13]; 13 to 15 days,0
same,"Plant response rating (0 to 100), Corn",[13],5
same,"Plant response rating, Corn","[13]; 31 g ai/ha, 13 to 15 days",5
same,"Plant response rating, Corn",[13]; 62 g ai/ha,5
same,"Plant response rating (0 to 100), Lambsquarters",[14],60
same,"Plant response rating, Lambsquarters","[14]; 31 g ai/ha, 13 to 15 days",75
same,"Plant response rating, Lambsquarters",[14]; 62 g ai/ha,60
same,"Plant response rating (0 to 100), Pigweed",[15],70
same,"Plant response rating, Pigweed","[15]; 31 g ai/ha, 13 to 15 days",45
same,"Plant response rating, Pigweed",[15]; 62 g ai/ha,45
same,"Plant response rating (0 to 100), Waterhemp",[16],75
same,"Plant response rating, Waterhemp","[16]; 31 g ai/ha, 13 to 15 days",35
same,"Plant response rating, Waterhemp",[16]; 62 g ai/ha,65
N#Cc1cnn(-c2c(C#N)cccc2Oc2ncc(Br)cn2)c1 [Compound 135],"Plant response rating, Kochia",[1]; [17],100
same,Kochia plant response rating,[1]; [17],100
same,"Plant response rating, Ragweed",[2]; [17],90
same,Ragweed plant response rating,[2]; [17],90
same,"Plant response rating, Ryegrass, Italian",[3]; [17],0
same,"Ryegrass, Italian plant response rating",[3]; [17],20
same,Barnyardgrass plant response rating,[4]; [19],40
same,"Plant response rating, Barnyardgrass",[4]; [24],100
same,Corn plant response rating,[5]; [19],10
same,"Plant response rating, Corn",[5]; [24],80
same,"Plant response rating, Rice",[6],0
same,"Plant response rating, Ducksalad",[7],70
same,"Plant response rating, Barnyardgrass",[8],30
same,Galium plant response rating,[9]; [25],0
same,Galium plant response rating,[9]; [21],0
same,Galium plant response rating,[9]; [22],90
same,"Plant response rating, Galium",[9],80
same,Corn plant response rating,[10]; [25],5
same,Corn plant response rating,[10]; [21],10
same,Corn plant response rating,[10]; [22],30
same,"Plant response rating, Corn",[10],5
